For data set [1], the system named is A549 cells. Kind of data set: Phospholipid content by LC/MS/MS after lipid exchange. To be noted: mass spectrometry. Type of data set: cell-based, human. The method, then:
Exchange of Lipids between Cells and Cyclodextrin-lipid Complexes. Unless otherwise noted, the cells are cultured in 10 cm plates with 10 mL medium. After removing the growth medium and washing three times with 10 ml DPBS, a 1500 μL aliquot of cyclodextrin-lipid complex containing MαCD (formed using 1.5 mM lipid and 40 mM MαCD concentrations) was added to 90% confluent mammalian cells cultured in […] cell culture dishes (Corning Incorporated, Durham, N.C.). The cells were then incubated with the cyclodextrin-lipid complex for 1 hour at 37° C., unless otherwise noted. After removal of the cyclodextrin-lipid complex and three washes with 10 mL PBS the cells were removed from the plate by scraping in 5 mL PBS. The cells were then pelleted by centrifugation for 3 minutes at 3,000 rpm and the lipid composition of the pellet was analyzed. […]
Phospholipid Content by LCMS/M S: Phospholipids were extracted from samples as set forth above. […] The class specific phospholipid extracts for each sample were injected on an Agilent (Santa Clara Calif., USA) Eclipse XDB-C8 reversed phase column (4.6×50 mm, 1.8 μm particle size) for separation of molecular species within each class by gradient elution and detected by mass spectrometry utilizing scheduled multiple reaction monitoring. In this manner, a peak with unique column elution time and mass-to-fragment profile was measured. […]

The subject of data set [2] is MDA-MB-231 cells. Kind of data set: Transferrin (TF) endocytosis. To be noted: cholesterol depletion, 10 mM MβCD, 30 min, 37° C. The class given is cell-based. The protocol: Measurement of Transferrin (TF) Endocytosis. MDA-MB-231 cells were plated in 2 ml RPMI 1640 at 6×10^5 on a coverslip in a 35 mm dish. After 1 d, they were subjected to cholesterol depletion or phospholipid exchange. For cholesterol depletion, cells were washed with 1 ml DPBS (2-3 times) and treated with 10 mM M MβCD/DMEM for 30 min at 37° C. in the CO2 incubator. For phospholipid substitution, the DPBS washed cells were treated with mixture of 40 mM MαCD and a combination of 0.75 mM bSM and 0.75 mM POPC in serum free medium for 30 rain, again while maintained at 37° C. in the CO2 incubator. After cholesterol depletion or phospholipid exchange, cells were washed with 1 ml DPBS three times. Then 50 μg/ml TF-AF488 in DMEM was added to the cells and incubated for 10 min in room temperature in the dark. Next, cells were washed with 2 ml DPBS three times and subjected to an additional 3 washes on ice with an acid solution (100 mM citric acid, 140 mM NaCl in distilled water pH adjusted to 1.75), incubating the cells with the solution for 3 min during each wash. The acid wash solution was removed by washing three times with 2 ml of 1×PBS and the cells then fixed using 2 ml 3% PFA for 30 min (10 min on ice and 20 min at room temperature). […]

Data set [3] relates to A549 cells. Kind of data set: Charred TLC of cellular lipids after exchange. The class given is cell-based, human. Conditions: exchange with 3 mM exogenous POPC and MαCD, 1 hour; FIG. 5C lane 4. The protocol:
High Performance Thin Layer Chromatography. The samples and pure lipid standards were dissolved in 1:1 (v:v) chloroform/methanol. […] The dissolved lipids then applied to HP-TLC (Silica Gel 60) plates (Merck, KGaA, Darmstadt, Germany) or Uniplate Silica Gel G plates (Analtech, Inc., Newark, Del.) and chromatographed in 65:25:5 (v:v) chloroform/methanol/28.0-30.0 (v/v) % ammonium hydroxide. Following chromatography, the TLC plates were air-dried and saturated with 3% (w/v) cupric-acetate-8% (v/v) phosphoric acid by spraying, and then air-dried again. Plates were then charred at 180° C. to develop lipid bands. Lipid band intensity was measured using Image J software (National Institutes of Health). Lipids in samples were quantified by comparing background-subtracted band intensity with that of a curve composed of various standard amounts of each lipid chromatographed on the same TLC plate. The intensity in the standard bands was fit to a linear intensity versus lipid quantity curve.
Analysis of exogenous lipid exchange over time after delivery into A549 cells. After a 1 h at 37° C. treatment with 40 mM MαCD mixed with 1.5 mM bSM, A549 cells were washed three times with DPBS. Then the cells were cultured for 0, 2, 4, and 6 hours in 10 mL RPMI 1640 medium supplemented with 10% fetal bovine serum. […]

Data set [4] relates to A549 cells. The experiment in a line: Cell morphology (cell rounding) and cell condition during incubation with MαCD and lipids.
Text: In certain embodiments, the appropriate lipid concentration can be determined prior to implementing the exchange methods of the instant disclosure. For example, the optimal lipid concentration can be determined by screening a series of various lipid concentrations. For example, cyclodextrin-lipid complexes of the present disclosure can be formed using a constant alpha-cyclodextrin concentration and varying lipid. Once various solutions of cyclodextrin and lipid are made they can be applied to cells using the methods described herein. This will enable the user to identify the highest concentration(s) lipids where the cells are not negatively affected, i.e., no cell rounding over time is optimal for lipid exchange, as it minimizes cell loss during processing. This can be determined, for example, by splitting cells into each well of a multi-well plate one day before the experiment and growing the cells to confluence. Then equal aliquots of the solutions having various concentrations of lipid are placed in separate wells and incubated at 37° C. for 1-2 hours.
In certain embodiments, the appropriate cyclodextrin concentration can be determined prior to implementing the exchange methods of the instant disclosure. For example, the optimal cyclodextrin concentration can be determined by screening a series of various cyclodextrin concentrations. For example, cyclodextrin-lipid complexes of the present disclosure can be formed using a constant lipid concentration but varying alpha-cyclodextrin concentration. Once various solutions of cyclodextrin and lipid are made they can be applied to cells using the methods described herein. […] This can be determined, for example, by splitting cells into each well of a multi-well plate one day before the experiment and growing the cells to confluence. Then equal aliquots of the solutions having various concentrations of cyclodextrin are placed in separate wells and incubated at 37° C. for 1-2 hours.
In some embodiments, the instructions for the analysis of lipid exchange include methods for identifying optimal concentrations of lipids and/or cyclodextrins for use in exchanging lipids between a cyclodextrin-lipid complex of the present disclosure and a cell membrane. […] As such, instructions included within kits of the instant disclosure can include, instructions for screening a series of various cyclodextrin or lipid concentrations. For example, the instructions can include maintaining a constant lipid concentration and altering numerous alpha-cyclodextrin concentrations or vice versa. […] This can be determined, for example, by splitting cells into each well of a multi-well plate one day before the experiment and growing the cells to confluency. […]
Data set [5] concerns A549 cells. The experiment in a line: Dithionite quenching of the NBD-DPPE exchanged into the cells. The class given is cell-based, human. The protocol:
Dithionite Quenching of the NBD-DPPE Exchanged into the Cells. Cells into which NBD-DPPE was exchanged were prepared as described above, except at either 15° C., room temperature (23° C.) or 37° C. Fluorescence was measured before and (as a function of time) after the addition of a freshly prepared solution of IM dithionite in IM Tris buffer (pH 10) to the cells providing a final dithionite concentration of 50 mM.

The subject of data set [6] is A549 cells. The experiment in a line: Delivery of fluorescent NBD-DPPE into cells, kinetics of exchange. The class given is cell-based, human. The method, then: Microscopy and Kinetics of Exchange Monitored with Fluorescent Probes and ^3H Acetate: Cyclodextrin-lipid complex containing 1.5 mM lipid (90% bSM and 10% NBD-DPPE) and 40 mM MαCD was prepared. Then, 500 μl of the cyclodextrin-lipid complex was added to 90% confluent A549 cells cultured in 6-well plates (Corning Inc., Durham, N.C.). The cells were incubated for different times at 37° C., and then the cyclodextrin-lipid complex was removed. After three washes with 2 ml PBS the cells were removed from the plate by scraping in 1 ml PBS. The cells were pelleted by centrifugation at 3,000 rpm for 3 minutes and re-suspended in 1 ml PBS. Seven μl aliquots of cells were loaded on microscope slides and covered with a, coverslip. NBD fluorescence was then imaged by confocal laser scanning microscopy using a Zeiss LSM 5 Pascal confocal laser scanning microscope system (Carl Zeiss AG, German).
In other experiments, fluorescence intensity was measured for the each well of cells whereby cells were placed in fluorescence cuvettes using Fluorolog (Jobin Yvon Horiba, Edison, N.J.) with an excitation wavelength of 465 nm and emission wavelength of 534 nm. A non-specific lipid transfer control was prepared in a similar fashion without cyclodextrin.
In an analogous experiment, A549 cells were ^3H labeled and subjected to lipid exchange with cyclodextrin-lipid complex. The cells were collected at different times and lipids extracted and separated on TLC as described above. Radioactivity in the PS+PI and SM bands was subsequently measured by scintillation counting.

Turning to `CCCCCCCCCCCCC/C=C/[C@@H](O)[C@H](COP(=O)([O-])OCC[N+](C)(C)C)NC(=O)CCCCCCCCCCCCCCCC` [C17:0 SM, N-hepadecanoyl-D-erythro-sphingosylphosphorylcholine], the “exogenous C17:0 SM in cells after exchange relative to total endogenous cell SM prior to exchange” value in data set [1] is listed as 2.1 fold.

As for Methyl-β-cyclodextrin [MβCD], the “clathrin-mediated endocytosis of transferrin” value in data set [2] was “strongly inhibited”.

In the case of “1-palmitoyl-2-oleoyl-sn-glycerol-3-phosphocholine [POPC]”, the “removal of endogenous SM” value in data set [3] was “most endogenous SM was removed”. The “incubation time at which normal morphology begins to change” value in data set [4] (3 mM POPC, 40 mM MαCD) is “≈45′”; in data set [4] (3 mM POPC, 80 mM MαCD), “≈15′”; in data set [4] (6 mM POPC, 40 mM MαCD), “≈45′”; in data set [4] ([…] POPC, 40 mM MαCD) it was “≈15′”.

With `CCCCCCCCCCCCCCCC(=O)OC[C@H](COP(=O)(O)OCCNc1ccc([N+](=O)[O-])c2nonc12)OC(=O)CCCCCCCCCCCCCCC` [NBD-DPPE, 1,2-dipalmitoyl-sn-glycero-3-phosphoethanolamine-N-(7-nitro-2-1,3-benzoxadiazol-4-yl)], in data set [5] (FIG. 3B), the “NBD-lipid exchanged into cells accessible to dithionite” value is recorded as 70-80%. The “fluorescence protected from dithionite reduction” value in data set [5] (incubation at 15° C.) is “about 20%”; in data set [5] (incubation at 37° C., extrapolated to time zero), “approximately 30%”. In data set [6] (37° C., FIG. 2A), the “half-time of delivery of NBD-DPPE and removal of endogenous SM” value was in the range of 15 to 20 min. The “Half-time of lipid exchange (endogenous SM removal / NBD-DPPE delivery)” value in data set [6] (A549 cells, 37° C., FIG. 2A legend) was in the range of 10 to 15 min.

Consider `OC[C@H]1O[C@@](CO)(O[C@H]2O[C@H](CO)[C@@H](O)[C@H](O)[C@H]2O)[C@@H](O)[C@@H]1O` [sucrose], for which, in data set [6] (40 or 240 mM sucrose substituted for MαCD), the “amount of fluorescent lipid delivered to cells relative to buffer only” value was “did not increase”.

Source of the values: patent US20190055512A1, “METHODS AND COMPOSITIONS FOR SUBSTITUTING MEMBRANE LIPIDS IN LIVING CELLS” (The Research Foundation for The State University of New York, priority 2016, published 2019).
